According to patent US20020051978A1, “Methods and compositions for the identification, assessment, prevention and therapy of human cancers” (priority 2000, published 2002):
“And” between values parts separate entries of the source, which are not always exact repeats. Identical values can stand only once. Like-named read-outs stand apart in the source and are kept apart here.

How the values were obtained:
[1] = system: 60 cancer cell lines (NCI 60 cancer cell line series); assay: NCI-DTP in vitro cancer screen, sulforhodamine B (SRB) growth inhibition, 48 hour exposure; format: cell-based, human
In short: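 Sixty NCI-DTP cancer lines plated at line-specific densities, dosed on day 1 in duplicate with 5 concentrations at ten-fold intervals. After 48 h exposure, cell mass read by SRB staining; GI50 (50% growth inhibition) taken from dose-response curves and expressed as -log GI50.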

[2] = system: 60 cancer cell lines (NCI 60 cancer cell line series); details: cited from earlier work

COc1cccc2c1C(=O)c1c(O)c3c(c(O)c1C2=O)C[C@@](O)(C(C)=O)C[C@@H]3O[C@H]1C[C@H](N)[C@H](O)[C@H](C)O1 [Daunorubicin]
7.2 and 7.5: -Log (GI50) ([2]; NSCLC HOP-92 (CL1029))
6.4: -Log (GI50) ([2]; Renal UO-31 CL9004)
3: classification of cell line as Low(1), Medium(2) or High(3) sensitivity to compound ([1]; Breast MCF7(I) (CL5001)) | classification of cell line as Low(1), Medium(2) or High(3) sensitivity to compound ([1]; Leukemia CCRF-CEM(I) (CL7003)) | classification of cell line as Low(1), Medium(2) or High(3) sensitivity to compound ([1]; Leukemia HL-60(I) (CL7008)) | classification of cell line as Low(1), Medium(2) or High(3) sensitivity to compound ([1]; Leukemia MOLT-4 (CL7006)) | classification of cell line as Low(1), Medium(2) or High(3) sensitivity to compound ([1]; Leukemia SR CL7019) | sensitivity class NSCLC NCI-H460 CL1021 ([1]; cell line NSCLC NCI-H460, CL1021)
6.5 and 6.8: -Log (GI50) ([2]; NSCLC NCI-H332M CL1017) | -Log (GI50) ([2]; Ovarian OVCAR-4 CL6002)
7.3 and 7.6: -Log (GI50) ([2]; Melanoma MALME-3M CL10002) | -Log (GI50) ([2]; NSCLC A549/ATCC (CL1004))
6.2 and 5.9: -Log (GI50) ([2]; Colon HCT-15 CL4015) | -Log (GI50) ([2]; NSCLC EKVX (CL1008))
6.8: -Log (GI50) ([2]; Colon COLO-250 CL4010)
6.8 and 6.9: -Log (GI50) ([2]; Renal A498 CL9013)
7.9 and 8.0: -Log (GI50) ([2]; Leukemia CCRF-CEM(I) (CL7003)) | -Log (GI50) ([2]; Leukemia HL-60(I) (CL7008))
7.4 and 7.7: -Log (GI50) ([2]; CNS SNB-19 (CL12002))
8.2 and 8.0: -Log (GI50) ([2]; Leukemia MOLT-4 (CL7006)) | -Log (GI50) ([2]; NSCLC NCI-H460 CL1021)
7.5: -Log (GI50) ([2]; NSCLC NCI-H226 CL1013)
6.8 and 7.1: -Log (GI50) ([2]; Breast MDA-N CL5012) | -Log (GI50) ([2]; Melanoma M14 (CL10014))
6.8 and 7.0: -Log (GI50) ([2]; Ovarian OVCAR-3 CL6001) | -Log (GI50) ([2]; Renal RXF-393 CL9016)
7.5 and 7.8: -Log (GI50) ([2]; CNS U251(I) CL12009)
7.2 and 7.3: -Log (GI50) ([2]; Breast T-47D (CL5014))
6.7 and 6.9: -Log (GI50) ([2]; Breast MDA-MB-231 CL5005) | -Log (GI50) ([2]; Breast MDA-MB-435 (CL5011)) | -Log (GI50) ([2]; Melanoma UACC-257 (CL10021))
1: classification of cell line as Low(1), Medium(2) or High(3) sensitivity to compound ([1]; Breast BT-549 (CL5013)) | classification of cell line as Low(1), Medium(2) or High(3) sensitivity to compound ([1]; Breast MCF7/ADRr (CL5002)) | classification of cell line as Low(1), Medium(2) or High(3) sensitivity to compound ([1]; Breast MDA-MB-231 CL5005) | classification of cell line as Low(1), Medium(2) or High(3) sensitivity to compound ([1]; Breast MDA-MB-435 (CL5011)) | classification of cell line as Low(1), Medium(2) or High(3) sensitivity to compound ([1]; Breast MDA-N CL5012) | classification of cell line as Low(1), Medium(2) or High(3) sensitivity to compound ([1]; Colon COLO-250 CL4010) | classification of cell line as Low(1), Medium(2) or High(3) sensitivity to compound ([1]; Colon HCC-2998 (CL4002)) | classification of cell line as Low(1), Medium(2) or High(3) sensitivity to compound ([1]; Colon HCT-15 CL4015) | classification of cell line as Low(1), Medium(2) or High(3) sensitivity to compound ([1]; Melanoma M14 (CL10014)) | classification of cell line as Low(1), Medium(2) or High(3) sensitivity to compound ([1]; Melanoma SK-MEL-28 (CL10008)) | classification of cell line as Low(1), Medium(2) or High(3) sensitivity to compound ([1]; Melanoma UACC-257 (CL10021)) | classification of cell line as Low(1), Medium(2) or High(3) sensitivity to compound ([1]; NSCLC EKVX (CL1008)) | sensitivity class NSCLC NCI-H332M CL1017 ([1]; cell line NSCLC NCI-H332M, CL1017) | sensitivity class Ovarian OVCAR-3 CL6001 ([1]; cell line Ovarian OVCAR-3, CL6001) | sensitivity class Ovarian OVCAR-4 CL6002 ([1]; cell line Ovarian OVCAR-4, CL6002) | sensitivity class Ovarian OVCAR-5 CL6003 ([1]; cell line Ovarian OVCAR-5, CL6003) | sensitivity class Renal A498 CL9013 ([1]; cell line Renal A498, CL9013) | sensitivity class Renal RXF-393 CL9016 ([1]; cell line Renal RXF-393, CL9016) | sensitivity class Renal TK10 CL9024 ([1]; cell line Renal TK10, CL9024) | sensitivity class Renal UO-31 CL9004 ([1]; cell line Renal UO-31, CL9004)
7.3 and 7.5: -Log (GI50) ([2]; NCSLC NCI-H522 CL1003)
2: classification of cell line as Low(1), Medium(2) or High(3) sensitivity to compound ([1]; Breast T-47D (CL5014)) | classification of cell line as Low(1), Medium(2) or High(3) sensitivity to compound ([1]; CNS SF-268 CL12014) | classification of cell line as Low(1), Medium(2) or High(3) sensitivity to compound ([1]; CNS SF-295 CL12015) | classification of cell line as Low(1), Medium(2) or High(3) sensitivity to compound ([1]; CNS SNB-19 (CL12002)) | classification of cell line as Low(1), Medium(2) or High(3) sensitivity to compound ([1]; CNS SNB-75(I) CL12005) | classification of cell line as Low(1), Medium(2) or High(3) sensitivity to compound ([1]; CNS U251(I) CL12009) | classification of cell line as Low(1), Medium(2) or High(3) sensitivity to compound ([1]; Colon HCT-116 (CL4003)) | classification of cell line as Low(1), Medium(2) or High(3) sensitivity to compound ([1]; Colon HT29(I) CL4001) | classification of cell line as Low(1), Medium(2) or High(3) sensitivity to compound ([1]; Colon SW-620 (CL4009)) | classification of cell line as Low(1), Medium(2) or High(3) sensitivity to compound ([1]; Melanoma MALME-3M CL10002) | classification of cell line as Low(1), Medium(2) or High(3) sensitivity to compound ([1]; Melanoma SK-MEL-5 (CL10007)) | classification of cell line as Low(1), Medium(2) or High(3) sensitivity to compound ([1]; Melanoma UACC-62 (CL10020)) | classification of cell line as Low(1), Medium(2) or High(3) sensitivity to compound ([1]; NSCLC A549/ATCC (CL1004)) | classification of cell line as Low(1), Medium(2) or High(3) sensitivity to compound ([1]; NSCLC HOP-62 (CL1026)) | classification of cell line as Low(1), Medium(2) or High(3) sensitivity to compound ([1]; NSCLC HOP-92 (CL1029)) | classification of cell line as Low(1), Medium(2) or High(3) sensitivity to compound ([1]; NSCLC NCI-H226 CL1013) | sensitivity class NSCLC NCI-H23(I) CL1001 ([1]; cell line NSCLC NCI-H23(I), CL1001) | sensitivity class NSCLC NCI-H522 CL1003 ([1]; cell line NSCLC NCI-H522, CL1003) | sensitivity class Ovarian IGROV1 CL6010 ([1]; cell line Ovarian IGROV1, CL6010) | sensitivity class Ovarian OVCAR-8 CL6005 ([1]; cell line Ovarian OVCAR-8, CL6005) | sensitivity class Prostate DU-145 CL11003 ([1]; cell line Prostate DU-145, CL11003) | sensitivity class Prostate PC-3(I) CL11001 ([1]; cell line Prostate PC-3(I), CL11001) | sensitivity class Renal 786-O CL9018 ([1]; cell line Renal 786-O, CL9018) | sensitivity class Renal ACHN CL9023 ([1]; cell line Renal ACHN, CL9023) | sensitivity class Renal CAKI-1 CL9015 ([1]; cell line Renal CAKI-1, CL9015) | sensitivity class Renal SN12C CL9008 ([1]; cell line Renal SN12C, CL9008)
7.2 and 7.4: -Log (GI50) ([2]; Melanoma SK-MEL-5 (CL10007))
6.8 and 6.7: -Log (GI50) ([2]; Breast BT-549 (CL5013)) | -Log (GI50) ([2]; Colon HCC-2998 (CL4002))
5.3: -Log (GI50) ([2]; Breast MCF7/ADRr (CL5002))
8.1 and 8.0: -Log (GI50) ([2]; Breast MCF7(I) (CL5001)) | -Log (GI50) ([2]; Leukemia SR CL7019)
7.6 and 7.7: -Log (GI50) ([2]; Colon SW-620 (CL4009))
7.6 and 7.8: -Log (GI50) ([2]; Colon HCT-116 (CL4003)) | -Log (GI50) ([2]; NSCLC HOP-62 (CL1026))
6.5 and 6.7: -Log (GI50) ([2]; Melanoma SK-MEL-28 (CL10008))
